Earlier results in patent publication US20020046426A1, “Application of carbonyl compounds in the process of tanning hides” (RHODIA BRASIL LTDA., priority 1999, published 2002).

Legend:
mice = conditions: mouse, in vivo, po

Compound	LD50 (mice)	irritation to the eyes (eyes)
CC(O)CC=O (centres unmarked) [aldol, 3-hydroxyl butanal]	2180 mg/kg	
C/C=C/C=O [crotonaldehyde, 2-butenal]		extremely irritant to the eyes
